Measured values taken from PubChem BioAssay AID248 (DTP/NCI, 2004).
Where “and” joins values, the source holds several entries; their conditions need not be identical. Identical values can stand only once. Inconclusive results and toxic doses are left out. Rule as the data show it: active = T/C of 150% or more; inactive = T/C below 125%.

System: L1210 leukemia ip in BDF1 mice, survival T/C
Assay: NCI In Vivo Anticancer Drug Screen. Data for tumor model L1210 Leukemia (intraperitoneal) in B6D2F1 (BDF1) mice
Conditions: endpoint: mean survival time, higher = longer survival
Procedure, shortened: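 Mice bearing the transplanted tumor received compound or vehicle. Survival of the treated group was divided by that of the vehicle-treated control group to give the ratio.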

[1] = dose: 25.0 mg/kg/injection, schedule: Q01DX009 (ip), vehicle: saline with Tween-80
[2] = dose: 50.0 mg/kg/injection, schedule: Q01DX009 (ip), vehicle: saline with Tween-80
[3] = dose: 100.0 mg/kg/injection, schedule: Q01DX009 (ip), vehicle: saline
[4] = dose: 100.0 mg/kg/injection, schedule: Q04DX003 (ip), vehicle: saline
[5] = dose: 100.0 mg/kg/injection, schedule: Q01DX001 (ip), vehicle: saline
[6] = dose: 200.0 mg/kg/injection, schedule: Q01DX001 (ip), vehicle: saline
[7] = dose: 400.0 mg/kg/injection, schedule: Q01DX001 (ip), vehicle: saline
[8] = dose: 100.0 mg/kg/injection, schedule: Q04DX003 (ip), vehicle: Klucel (hydroxypropylcellulose) (HPC)
[9] = dose: 200.0 mg/kg/injection, schedule: Q04DX003 (ip), vehicle: Klucel (hydroxypropylcellulose) (HPC)
[10] = dose: 400.0 mg/kg/injection, schedule: Q04DX003 (ip), vehicle: Klucel (hydroxypropylcellulose) (HPC)
[11] = dose: 100.0 mg/kg/injection, schedule: Q01DX009 (ip), vehicle: saline with Tween-80
[12] = dose: 200.0 mg/kg/injection, schedule: Q01DX009 (ip), vehicle: saline with Tween-80
[13] = dose: 400.0 mg/kg/injection, schedule: Q01DX009 (ip), vehicle: saline with Tween-80
[14] = dose: 100.0 mg/kg/injection, schedule: Q04DX002 (ip), vehicle: saline with Tween-80
[15] = dose: 200.0 mg/kg/injection, schedule: Q04DX002 (ip), vehicle: saline with Tween-80
[16] = dose: 400.0 mg/kg/injection, schedule: Q04DX002 (ip), vehicle: saline with Tween-80
[17] = dose: 100.0 mg/kg/injection, schedule: Q04DX003 (ip), vehicle: saline with Tween-80
[18] = dose: 100.0 mg/kg/injection, schedule: Q04DX002 (ip), vehicle: Klucel (hydroxypropylcellulose) (HPC)
[19] = dose: 200.0 mg/kg/injection, schedule: Q04DX002 (ip), vehicle: Klucel (hydroxypropylcellulose) (HPC)
[20] = dose: 400.0 mg/kg/injection, schedule: Q04DX002 (ip), vehicle: Klucel (hydroxypropylcellulose) (HPC)

Measured: T/C

Cc1c(N=NN(C)C)c(=O)n(-c2ccccc2)n1C
inactive: dose: 18.0 mg/kg/injection, schedule: Q01DX001 (ip), vehicle: saline with Tween-80 100 % of control | dose: 18.0 mg/kg/injection, schedule: Q04DX003 (ip), vehicle: saline with Tween-80 107 % of control | [1] 105 % of control | dose: 37.0 mg/kg/injection, schedule: Q01DX001 (ip), vehicle: saline with Tween-80 116 % of control | dose: 37.0 mg/kg/injection, schedule: Q04DX003 (ip), vehicle: saline with Tween-80 108 % of control | [2] 114 % of control | dose: 75.0 mg/kg/injection, schedule: Q01DX001 (ip), vehicle: saline with Tween-80 119 % of control | dose: 75.0 mg/kg/injection, schedule: Q04DX003 (ip), vehicle: saline with Tween-80 112 % of control | dose: 100.0 mg/kg/injection, schedule: Q01DX001 (ip), vehicle: saline with Tween-80 97 % of control

CN(C)CCNS(=O)(=O)N(C)C
inactive: [3] 102 % of control | [4] 95 % of control | dose: 200.0 mg/kg/injection, schedule: Q01DX009 (ip), vehicle: saline 102 % of control | dose: 200.0 mg/kg/injection, schedule: Q04DX003 (ip), vehicle: saline 100 % of control | dose: 400.0 mg/kg/injection, schedule: Q01DX009 (ip), vehicle: saline 108 % of control | dose: 400.0 mg/kg/injection, schedule: Q04DX003 (ip), vehicle: saline 97 % of control

CCOc1ncc([N+](=O)[O-])c(OCC)n1
inactive: dose: 50.0 mg/kg/injection, schedule: Q01DX001 (ip), vehicle: saline 103 % of control | [5] 106 % of control | [6] 103 % of control | [7] 100 % of control

CC12CCC(C)(O1)C1C(=O)OC(=O)C12 (centres undefined)
inactive: [8] 96 % of control | [9] 98 % of control | [10] 98 % of control

OC(/C(=C(/c1ccccc1)c1ccc(Cl)cc1)c1ccccc1)(c1ccccc1)c1ccccc1
inactive: [11] 98 % of control | [12] 95 % of control | [13] 98 % of control

CCOC(=O)C(C)C1(c2ccccc2)OC(=O)c2ccccc21 (centres undefined)
inactive: [14] 108 % of control | [15] 112 % of control | [16] 97 % of control

CCOC(=O)C1(C)CCCCC1=O (centres undefined)
inactive: dose: 100.0 mg/kg/injection, schedule: Q01DX009 (ip), vehicle: saline sonified 110 % of control | dose: 200.0 mg/kg/injection, schedule: Q01DX009 (ip), vehicle: saline sonified 96 % of control | dose: 400.0 mg/kg/injection, schedule: Q01DX009 (ip), vehicle: saline sonified 105 % of control

CC(C)(N)CNc1ccccc1
inactive: dose: 25.0 mg/kg/injection, schedule: Q01DX009 (ip), vehicle: saline 98 % of control | dose: 25.0 mg/kg/injection, schedule: Q04DX003 (ip), vehicle: saline 97 % of control | dose: 50.0 mg/kg/injection, schedule: Q01DX009 (ip), vehicle: saline 98 % of control | dose: 50.0 mg/kg/injection, schedule: Q04DX003 (ip), vehicle: saline 92 % of control | [3] 100 % of control | [17] 98 % of control | [4] 105 % of control

CSC(=N)c1cccc(OCc2ccccc2)c1
inactive: dose: 100.0 mg/kg/injection, schedule: Q01DX009 (ip), vehicle: Klucel (hydroxypropylcellulose) (HPC) 113 % of control | [18] 100 % of control | dose: 100.0 mg/kg/injection, schedule: Q04DX002 (ip), vehicle: saline 102 % of control | dose: 200.0 mg/kg/injection, schedule: Q01DX009 (ip), vehicle: Klucel (hydroxypropylcellulose) (HPC) 96 % of control | [19] 103 % of control | dose: 200.0 mg/kg/injection, schedule: Q04DX002 (ip), vehicle: saline 102 % of control | [20] 94 % of control | dose: 400.0 mg/kg/injection, schedule: Q04DX002 (ip), vehicle: saline 102 % of control

CCC1(Cl)C(=O)OCc2c1cc1n(c2=O)Cc2cc3ccccc3nc2-1 (centres undefined)
inactive: dose: 1.0 mg/kg/injection, schedule: Q01DX001 (ip), vehicle: saline 97 % of control | dose: 1.0 mg/kg/injection, schedule: Q01DX Z (ip), vehicle: saline 100 % of control | dose: 2.0 mg/kg/injection, schedule: Q01DX001 (ip), vehicle: saline 101 % of control | dose: 2.0 mg/kg/injection, schedule: Q01DX Z (ip), vehicle: saline 95 % of control | dose: 4.0 mg/kg/injection, schedule: Q01DX001 (ip), vehicle: saline 100 % of control | dose: 4.0 mg/kg/injection, schedule: Q01DX Z (ip), vehicle: saline 97 % of control | dose: 6.0 mg/kg/injection, schedule: Q01DX001 (ip), vehicle: saline 95 % of control | dose: 6.0 mg/kg/injection, schedule: Q01DX Z (ip), vehicle: saline 103 % of control

O=C(N/N=C/c1ccccc1Cl)c1ccccc1
inactive: [17] 96 % of control | dose: 200.0 mg/kg/injection, schedule: Q04DX003 (ip), vehicle: saline with Tween-80 101 % of control | dose: 400.0 mg/kg/injection, schedule: Q04DX003 (ip), vehicle: saline with Tween-80 88 % of control

c1ccc(C2NC2(c2ccccc2)C2(c3ccccc3)SCCCS2)cc1 (centres undefined)
inactive: [8] 111 % of control | [9] 103 % of control | [10] 105 % of control

COCC1C2CC(=O)OC2C(I)C1OC(=O)c1ccc(-c2ccccc2)cc1 (centres undefined)
inactive: [8] 100 % of control | [9] 104 % of control | [10] 91 % of control

CCCCCC1(C)OCC(C)(C)N1O (centres undefined)
inactive: [5] 104 % of control | [6] 102 % of control | [7] 111 % of control

CC1(c2ccc(F)cc2)OC(=O)c2c1ccc1ccccc21 (centres undefined)
inactive: [18] 101 % of control | [19] 94 % of control | [20] 101 % of control

CC(=O)[O][Hg][CH]1CCCCC1O (centres undefined)
inactive: dose: 5.0 mg/kg/injection, schedule: Q01DX001 (ip), vehicle: saline 103 % of control | dose: 10.0 mg/kg/injection, schedule: Q01DX001 (ip), vehicle: saline 95 % of control | dose: 12.3 mg/kg/injection, schedule: Q01DX009 (ip), vehicle: saline with Tween-80 106 % of control | dose: 20.0 mg/kg/injection, schedule: Q01DX001 (ip), vehicle: saline 97 % of control | dose: 40.0 mg/kg/injection, schedule: Q01DX001 (ip), vehicle: saline 95 % of control | dose: 80.0 mg/kg/injection, schedule: Q01DX001 (ip), vehicle: saline 102 % of control

O=C(O)CC1(CC(=O)O)CCCCC1
inactive: [11] 90 % of control | [12] 95 % of control | [13] 92 % of control

ClCC1=NC2C(Cl)C(Cl)C(Cl)C(Cl)C2N1 (centres undefined)
inactive: [18] 111 % of control | [19] 100 % of control | [20] 100 % of control

O=S(=O)(Cc1ccc(Cl)cc1Cl)Cc1ccc(Cl)cc1Cl
inactive: [8] 89 % of control | [9] 87 % of control | [10] 87 % of control

Cc1ccc(Cl)cc1NC(=O)Nc1ccc(F)c([N+](=O)[O-])c1
inactive: dose: 12.5 mg/kg/injection, schedule: Q01DX009 (ip), vehicle: saline with Tween-80 95 % of control and 90 % of control | [1] 88 % of control and 92 % of control | dose: 25.0 mg/kg/injection, schedule: Q04DX003 (ip), vehicle: saline with Tween-80 90 % of control | [2] 92 % of control | dose: 50.0 mg/kg/injection, schedule: Q04DX003 (ip), vehicle: saline with Tween-80 87 % of control | [14] 96 % of control and 89 % of control | [12] 93 % of control and 100 % of control | [15] 101 % of control and 91 % of control | [13] 93 % of control and 104 % of control | [16] 93 % of control and 94 % of control

O=C(Nc1cccc(C2=NCCCN2)c1)c1ccc(C(=O)Nc2cccc(C3=NCCCN3)c2)c([N+](=O)[O-])c1
inactive: dose: 0.05 mg/kg/injection, schedule: Q01DX015 (ip), vehicle: water 98 % of control | dose: 0.09 mg/kg/injection, schedule: Q01DX015 (ip), vehicle: water 96 % of control | dose: 0.19 mg/kg/injection, schedule: Q01DX015 (ip), vehicle: water 98 % of control | dose: 0.38 mg/kg/injection, schedule: Q01DX015 (ip), vehicle: water 101 % of control | dose: 0.5 mg/kg/injection, schedule: Q01DX015 (ip), vehicle: water 97 % of control
